Like-named read-outs stand apart in the source and are kept apart here.
System: RSV A2
Experiment: RSV antiviral cytopathic effect (CPE) assay
Format: cell-based
Settings: human respiratory syncytial virus, HEp-2, 120 h, HEp2 cells infected with RSV A2 (moi ~0.01), 5 days, MTT readout
Protocol: Compounds of the invention were tested for their antiviral activity against respiratory syncytial virus. Cytopathic effect (CPE) assays were performed essentially as described in the literature (see for example Watanabe et al, 1994, J. Virological Methods, 48:257). Serial dilutions of the test compounds were made in 96 well plates. HEp2 cells (1.0×10^4 cells/well) were infected with RSV at a low multiplicity of infection (e.g. RSV A2 at an moi of ˜0.01) and added to plates to assess antiviral activity. Uninfected HEp2 cells were used to assess compound cytotoxicity. Assays were incubated for 5 days at 37° C. in a 5% CO2 atmosphere. The extent of CPE was determined via metabolism of the vital dye 3-(4,5-dimethylthiaxol-2-yl)-2,5-diphenyltetrazolium bromide (MTT). MTT (1 mg/ml) was added to each well and plates incubated for 2 hours incubation at 37° C. Wells were aspirated, iso-propanol (200 μL) was added and absorbance values read at 540/650 nm. Compound concentrations that inhibited CPE by 50% (EC50) and developed cytotoxicity (CC50) were calculated using non-linear regression analysis.
Representative mean EC50 values obtained are also provided. In the inventors' experience, replicate EC50 values usually fall within three standard deviations of the mean.

[1] = read-out: Activity Range (RSV A2 EC50)
[2] = mean EC50, read-out: RSV A2 EC50

Row | EC50 [1] | EC50 [2] | Structure (SMILES)
1 | 500 to 10000 nM | 1300 nM | O=C(NCCc1ccccc1)N1CCN2C(=O)c3cccn3CC12c1ccc(Cl)cc1 (stereo not drawn) [Compound 48]
2 | < 49 nM | 24 nM | COc1ccc(C23Cn4cccc4C(=O)N2CCN3C(=O)c2conc2C(F)(F)F)cc1 (stereo not drawn) [Compound 52]
3 | 500 to 10000 nM | 600 nM | COc1ccc(C23Cn4cccc4C(=O)N2CCN3C(=O)c2ccoc2)cc1 (stereo not drawn) [Compound 54]
4 | 500 to 10000 nM | 2500 nM | COc1ccc(C23Cn4cccc4C(=O)N2CCN3C(=O)c2ocnc2C)cc1 (stereo not drawn) [Compound 55]
5 | < 49 nM | 49 nM | COc1ccc(C23Cn4cccc4C(=O)N2CCN3C(=O)c2conc2C)cn1 (stereo not drawn) [Compound 58]
6 | 500 to 10000 nM | 4700 nM | COc1ccc(C23Cn4cccc4C(=O)N2CCN3C(=O)c2cccn2C)cc1 (stereo not drawn) [Compound 60]
7 | 500 to 10000 nM | 980 nM | COc1ccc(C23Cn4cccc4C(=O)N2CCN3C(=O)c2ccnn2C)cc1 (stereo not drawn) [Compound 61]
8 | < 49 nM | 48 nM | Cc1nocc1C(=O)OCc1ccc(C23Cn4cccc4C(=O)N2CCN3C(=O)c2conc2C)cc1 (stereo not drawn) [Compound 62, 4-{1-[(3-methyl-1,2-oxazol-4-yl)carbonyl]-5-oxo-2,3-dihydro-1H,5H-imidazo[1,2-a]pyrrolo[1,2-d]pyrazin-10a(10H)-yl}benzyl 3-methyl-1,2-oxazole-4-carboxylate]
9 | 500 to 10000 nM | 8600 nM | Cc1nocc1C(=O)N1CCN2C(=O)c3cc(-c4ccccc4)nn3CC12c1ccc(Cl)cc1 (stereo not drawn) [Compound 64]
10 | < 49 nM | 17 nM | CCc1nocc1C(=O)N1CCN2C(=O)c3cccn3CC12c1ccc(OC)cc1 (stereo not drawn) [Compound 67]
11 | 100 to 499 nM | 160 nM | Cc1nocc1C(=O)N1CCN2C(=O)c3cccn3CC12c1ccc(O)cc1 (stereo not drawn) [Compound 69]
12 | > 10000 nM | 11000 nM | COc1ccc(C23Cn4cccc4C(=O)N2CCN3C(=O)c2cccnc2)cc1 (stereo not drawn) [Compound 71]
13 | < 49 nM | 48 nM | Cc1nocc1C(=O)N1CCN2C(=O)c3ccnn3CC12c1ccc(Cl)cc1 (stereo not drawn) [Compound 72]
14 | 100 to 499 nM | 250 nM | Cc1nocc1C(=O)N1CCN2C(=O)c3cccn3CC12c1ccsc1 (stereo not drawn) [Compound 73]
15 | 100 to 499 nM | 220 nM | Cc1nocc1C(=O)N1CCN2C(=O)c3cccn3CC12c1cccs1 (stereo not drawn) [Compound 74]
16 | > 10000 nM | – | COc1ccc(C23Cn4cc(-c5nnn[nH]5)cc4C(=O)N2CCN3C(=O)c2conc2C)cc1 (stereo not drawn) [Compound 75, 10a-(4-methoxyphenyl)-1-[(3-methyl-1,2-oxazol-4-yl)carbonyl]-7-(1H-tetrazol-5-yl)-2,3,10,10a-tetrahydro-1H,5H-imidazo[1,2-a]pyrrolo[1,2-d]pyrazin-5-one]
17 | 50 to 99 nM | 67 nM | COCc1ccc(C23Cn4cccc4C(=O)N2CCN3C(=O)c2conc2C)cc1 (stereo not drawn) [Compound 76]
18 | 500 to 10000 nM | 7300 nM | Cc1ccc([C@@]23Cn4cccc4C(=O)N2CCN3C(=O)c2conc2C)cn1 [Compound 77A, (10aS)-1-[(3-methyl-1,2-oxazol-4-yl)carbonyl]-10a-(6-methylpyridin-3-yl)-2,3,10,10a-tetrahydro-1H,5H-imidazo[1,2-a]pyrrolo[1,2-d]pyrazin-5-one]
19 | 500 to 10000 nM | 5800 nM | Cc1nocc1C(=O)N1CCN2C(=O)c3cccn3CC12c1ccc[n+]([O-])c1 (stereo not drawn) [Compound 78, 1-[(3-methyl-1,2-oxazol-4-yl)carbonyl]-10a-(1-oxidopyridin-3-yl)-2,3,10,10a-tetrahydro-1H,5H-imidazo[1,2-a]pyrrolo[1,2-d]pyrazin-5-one]
20 | 50 to 99 nM | 67 nM | Cc1nocc1C(=O)N1CCN2C(=O)c3ccc(Cl)n3CC12C1CCOCC1 (stereo not drawn) [Compound 81, 8-chloro-1-[(3-methyl-1,2-oxazol-4-yl)carbonyl]-10a-(tetrahydro-2H-pyran-4-yl)-2,3,10,10a-tetrahydro-1H,5H-imidazo[1,2-a]pyrrolo[1,2-d]pyrazin-5-one]
21 | < 49 nM | 48 nM | COc1ccc(C23Cn4cc(-c5cnn(C)c5)cc4C(=O)N2CCN3C(=O)c2conc2C)cc1 (stereo not drawn) [Compound 82]
22 | 50 to 99 nM | 120 nM | COc1ccc(C23Cn4cc(-c5cccnc5)cc4C(=O)N2CCN3C(=O)c2conc2C)cc1 (stereo not drawn) [Compound 83]
23 | > 10000 nM | – | O=C1c2cc(Br)cn2CC2(c3ccc(F)cc3)NCCN12 (stereo not drawn) [Compound 85]
24 | 50 to 99 nM | 65 nM | COc1ccc(C23Cn4cc(-c5cnn(C(C)C)c5)cc4C(=O)N2CCN3C(=O)c2conc2C)cc1 (stereo not drawn) [Compound 88]
25 | 100 to 499 nM | 140 nM | COc1ccc(C23Cn4cc(-c5cn(C)nc5C)cc4C(=O)N2CCN3C(=O)c2conc2C)cc1 (stereo not drawn) [Compound 91]
26 | > 10000 nM | – | COc1ccc(C23Cn4cc(-c5cnccc5C)cc4C(=O)N2CCN3C(=O)c2conc2C)cc1 (stereo not drawn) [Compound 92]

Second part, the compound before the results:

Row | Structure (SMILES) | EC50 [1] | EC50 [2]
27 | O=C(c1conc1C(F)(F)F)N1CCN2C(=O)c3cccn3CC12c1ccc(Cl)cc1 (stereo not drawn) [Compound 49] | < 49 nM | 7.9 nM
28 | Cc1nocc1C(=O)N1CCN2C(=O)c3cccn3CC12C1CCOCC1 (stereo not drawn) [Compound 50, 1-[(3-methyl-1,2-oxazol-4-yl)carbonyl]-10a-(tetrahydro-2H-pyran-4-yl)-2,3,10,10a-tetrahydro-1H,5H-imidazo[1,2-a]pyrrolo[1,2-d]pyrazin-5-onel] | 500 to 10000 nM | 1420 nM
29 | COc1ccc(C23Cn4cccc4C(=O)N2CCN3C(=O)c2cnoc2)cc1 (stereo not drawn) [Compound 51] | 500 to 10000 nM | 700 nM
30 | COc1ccc(C23Cn4cccc4C(=O)N2CCN3C(=O)c2c(C)noc2C)cc1 (stereo not drawn) [Compound 53] | 100 to 499 nM | 260 nM
31 | COc1ccc(C23Cn4cccc4C(=O)N2CCN3C(=O)c2snnc2C)cc1 (stereo not drawn) [Compound 56] | 100 to 499 nM | 370 nM
32 | Cc1nocc1C(=O)N1CCN2C(=O)c3cccn3CC12c1ccc2c(c1)CCO2 (stereo not drawn) [Compound 57] | < 49 nM | 14 nM
33 | COc1ccc(C23Cn4cccc4C(=O)N2CCN3C(=O)c2ncoc2C2CC2)cc1 (stereo not drawn) [Compound 59] | 100 to 499 nM | 180 nM
34 | Cc1nocc1C(=O)N1CCN2C(=O)c3cc(-c4ccccn4)nn3CC12c1ccc(Cl)cc1 (stereo not drawn) [Compound 63, 10a-(4-chlorophenyl)-1-[(3-methyl-1,2-oxazol-4-yl)carbonyl]-7-(pyridin-2-yl)-2,3,10,10a-tetrahydro-1H,5H-imidazo[1,2-a]pyrazolo[1,5-d]pyrazin-5-one] | < 49 nM | 21 nM
35 | COc1ccc(C23Cn4cc(F)cc4C(=O)N2CCN3C(=O)c2conc2C)cc1 (stereo not drawn) [Compound 65] | 50 to 99 nM | 66 nM
36 | COc1ccc(C23Cn4cc(F)cc4C(=O)N2CCN3C(=O)c2conc2C(F)(F)F)cc1 (stereo not drawn) [Compound 66] | < 49 nM | 15 nM
37 | COc1ccc(C23Cn4cccc4C(=O)N2CCN3C(=O)c2conc2C(C)C)cc1 (stereo not drawn) [Compound 68] | 50 to 99 nM | 53 nM
38 | Cc1nocc1C(=O)N1CCN2C(=O)c3cc(-c4ccco4)nn3CC12c1ccc(Cl)cc1 (stereo not drawn) [Compound 70] | < 49 nM | 3.6 nM
39 | Cc1ccc([C@]23Cn4cccc4C(=O)N2CCN3C(=O)c2conc2C)cn1 [Compound 77B, (10aR)-1-[(3-methyl-1,2-oxazol-4-yl)carbonyl]-10a-(6-methylpyridin-3-yl)-2,3,10,10a-tetrahydro-1H,5H-imidazo[1,2-a]pyrrolo[1,2-d]pyrazin-5-one] | < 49 nM | 19 nM
40 | Cc1ccc(C23Cn4cccc4C(=O)N2CCN3C(=O)c2conc2C)cn1 (stereo not drawn) [Compound 77] | 50 to 99 nM | 56 nM
41 | Cc1nocc1C(=O)N1CCN2C(=O)c3ccc(Cl)n3CC12c1ccc(F)cc1 (stereo not drawn) [Compound 80] | < 49 nM | 3.1 nM
42 | COc1ccc(C23Cn4cc(-c5ccncc5)cc4C(=O)N2CCN3C(=O)c2conc2C)cc1 (stereo not drawn) [Compound 84] | < 49 nM | 18 nM
43 | Cc1ccc(C23Cn4cc(Br)cc4C(=O)N2CCN3)cc1 (stereo not drawn) [Compound 86] | > 10000 nM | –
44 | COc1ccc(C23Cn4cc(-c5ccnn5C)cc4C(=O)N2CCN3C(=O)c2conc2C)cc1 (stereo not drawn) [Compound 87] | 50 to 99 nM | 500 nM
45 | COc1ccc(C23Cn4cc(C#N)cc4C(=O)N2CCN3C(=O)c2conc2C)cc1 (stereo not drawn) [Compound 89, 10a-(4-methoxyphenyl)-1-[(3-methyl-1,2-oxazol-4-yl)carbonyl]-5-oxo-2,3,10,10a-tetrahydro-1H,5H-imidazo[1,2-a]pyrrolo[1,2-d]pyrazine-7-carbonitrile] | 500 to 10000 nM | 1600 nM
46 | COc1ccc(C23Cn4cc(-c5cncnc5)cc4C(=O)N2CCN3C(=O)c2conc2C)cc1 (stereo not drawn) [Compound 90] | 500 to 10000 nM | 1300 nM
47 | Cc1ccc(C23Cn4cc(-c5ccccn5)cc4C(=O)N2CCN3C(=O)c2conc2C)cc1 (stereo not drawn) [Compound 93, 1-[(3-methyl-1,2-oxazol-4-yl)carbonyl]-10a-(4-methylphenyl)-7-(pyridin-2-yl)-2,3,10,10a-tetrahydro-1H,5H-imidazo[1,2-a]pyrrolo[1,2-d]pyrazin-5-one] | < 49 nM | 8.2 nM

Reference: patent US8604034B2, “Substituted imidazo[1,2-α]pyrrolo[1,2-d]pyrazines for treating respiratory syncytial virus (RSV) infections” (Biota Scientific Management Pty Ltd., priority 2010, dated 2013)
